The structures appear in SMILES notation.

This assay addresses T1, human GnRH receptor (Homo sapiens, UniProt P30968).
T1 construct: expressed in transfected cells; host or cells: RBL cells, stably transfected (in general)
T1 sequence (P30968 1-328): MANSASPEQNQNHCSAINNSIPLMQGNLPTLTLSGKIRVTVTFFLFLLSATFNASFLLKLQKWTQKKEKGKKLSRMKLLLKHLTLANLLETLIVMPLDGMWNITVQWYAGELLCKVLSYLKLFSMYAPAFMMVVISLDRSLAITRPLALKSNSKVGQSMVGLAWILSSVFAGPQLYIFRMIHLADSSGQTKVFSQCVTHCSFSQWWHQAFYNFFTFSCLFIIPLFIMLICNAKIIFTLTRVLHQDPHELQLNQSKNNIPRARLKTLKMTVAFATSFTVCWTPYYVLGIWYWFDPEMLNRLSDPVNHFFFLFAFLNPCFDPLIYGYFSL
As to the kind of experiment: Peptide competition radioligand binding displacement assay, human GnRH receptor membranes. The settings on record: one or more of the peptide competition human receptor binding assays. Summed up: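 Membranes for radioligand binding were prepared from RBL cells stably expressing human GnRH receptor, which were lysed by nitrogen cavitation at 900 psi, 4° C. Membranes from HEK293 cells stably transfected with human receptor were held in 10 mM HEPES pH 7.5, 150 mM NaCl, 0.1% BSA. Transiently transfected COS-7 cells were used for other species.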

For orientation: Ki means a dissociation constant, usually derived from enzyme kinetics or from competition with a known ligand. Low readings indicate higher affinity, high ones lower affinity. On to `COC(=O)c1ccccc1N(C)C(=O)c1ccc(Cl)c(-c2ncc(C)cc2Cl)c1` [2-77], for which the Ki is ≤ 100 nM.
Regarding `CN(C(=O)c1ccc(Cl)c(-c2cnc(C(F)(F)F)cc2C#N)c1)c1ccccc1OCCCN1CCC[C@H]1C(=O)O` [50-1, (S)-1-[3-(2-{[4-Chloro-3-(4-cyano-6-trifluoromethyl-pyridin-3-yl)-benzoyl]-methyl-amino}-phenoxy)-propyl]-pyrrolidine-2-carboxylic acid], the Ki is ≤ 100 nM.
In the case of `Cc1cc(C(F)(F)F)nc(=O)n1-c1cc(C(=O)N(C)c2cccc(F)c2)ccc1Cl` [30-17], the Ki is ≤ 100 nM.
For `COc1ccccc1N(C)C(=O)c1cc(-c2cnc(C(F)(F)F)cc2C#N)c(Cl)cc1OCCn1ccnc1` [42-3], the Ki was ≤ 100 nM.
In the case of `COc1ccccc1N(C)C(=O)c1ccc(Cl)c(-c2nc(C)c(Cl)cc2Cl)c1` [2-80], the Ki is ≤ 100 nM.
With `COc1ccccc1N(C)C(=O)c1cc(-c2cnc(C(F)(F)F)cc2C#N)c(Cl)cc1OCCNC(=O)C(F)(F)F` [47-4] the figure was ≤ 100 nM; with `COc1cccc(C)c1N(C)C(=O)c1ccc(Cl)c(-c2cnc(C)cc2Cl)c1` [2-27], ≤ 100 nM; with `CCN(C(=O)c1ccc(Cl)c(-c2ncc(Cl)cc2Cl)c1)c1ccccc1OC` [17-2], ≤ 100 nM.
With `COC(=O)c1ccccc1N(C)C(=O)c1cc(-c2cnc(C(F)(F)F)cc2C#N)c(Cl)cc1OC` [39-2], the inhibition constant Ki is ≤ 100 nM.
With `CN(C(=O)c1ccc(Cl)c(-c2cnc(C(F)(F)F)cc2C#N)c1)c1cccc(F)c1OCCCC(=O)O` [4-12], the Ki was ≤ 100 nM.
`COc1ccccc1N(C)C(=O)c1cc(-c2cnc(C(F)(F)F)cc2C#N)c(Cl)cc1OCCCn1cccc1` [42-10]: the Ki was ≤ 100 nM.
Take `COc1ccc(C)cc1N(C)C(=O)c1cc(-c2cnc(C(F)(F)F)cc2C#N)c(Cl)cc1OCCCC(=O)O` [34-12]: the Ki was ≤ 100 nM.
With `COC(=O)c1ccccc1N(C)C(=O)c1ccc(Cl)c(-c2ncc(Cl)cc2Cl)c1` [19-6] the figure was ≤ 100 nM; with `Cc1cc(Br)ncc1-c1cc(C(=O)N(C)c2ccccc2F)ccc1Cl` [2-39], ≤ 100 nM; with `COc1cc(Cl)c(-c2cnc(C(F)(F)F)cc2C#N)cc1C(=O)N(C)c1ccccc1` [39-7], ≤ 100 nM.
Take `COc1cccc(C)c1N(C)C(=O)c1ccc(Cl)c(-c2ncc(Cl)cc2Cl)c1` [2-69]: the Ki was ≤ 100 nM.
With `COc1ccccc1N(C)C(=O)c1ccc(Cl)c(-c2cnc(Cl)cc2Cl)c1` [2-3] the figure was ≤ 100 nM; with `COc1ccccc1N(C)C(=O)c1ccc(Cl)c(-c2ncc(C)cc2Cl)c1` [2-58], ≤ 100 nM.
As to `COc1cc(Cl)c(-c2cnc(C(F)(F)F)cc2C#N)cc1C(=O)N(C)c1ccccc1-c1cnco1` [39-12], the Ki was ≤ 100 nM.
As to `Cc1cc(Cl)ncc1-c1cc(C(=O)N(C)c2ccccc2OCC(=O)O)ccc1Cl` [4-1, (2-{[4-Chloro-3-(6-chloro-4-methyl-pyridin-3-yl)-benzoyl]-methyl-amino}-phenoxy)-acetic acid], the Ki is ≤ 100 nM.
Take `COc1cccc(N(C)C(=O)c2ccc(Cl)c(-c3ncc(Cl)cc3Cl)c2)c1` [19-9]: the inhibition constant Ki is ≤ 100 nM.
In the case of `COc1cc(Cl)c(-c2cnc(C(F)(F)F)cc2C#N)cc1C(=O)N(C)c1ncccc1OC` [39-13], the inhibitory constant (Ki) was ≤ 100 nM.
On to `CN(C(=O)c1ccc(Cl)c(-c2cnc(C(F)(F)F)cc2C#N)c1)c1ccccc1OCCN1CCC[C@@H]1C(=O)O` [50-2], for which the inhibition constant (Ki) was ≤ 100 nM.
`COc1ccccc1N(C)C(=O)c1cc(-c2cnc(C(F)(F)F)cc2C#N)c(Cl)cc1OCCc1ccccn1` [42-4]: the Ki is ≤ 100 nM.
On to `COc1ccccc1N(C)C(=O)c1ccc(Cl)c(-c2nc3ccccc3cc2C)c1` [2-79], for which the Ki was ≤ 100 nM.
Then `COc1ccccc1N(C)C(=O)c1ccc(Cl)c(-c2cnc(C(F)(F)F)cc2C)c1` [2-12], with ≤ 100 nM.
Take `COc1ccccc1N(C)C(=O)c1ccc(Cl)c(-c2cnc(C)cc2C)c1` [2-9]: the Ki is ≤ 100 nM.
On to `Cc1cccc(C)c1N(C)C(=O)c1ccc(Cl)c(-c2ncc(C(F)(F)F)cc2Cl)c1` [2-65], for which the inhibitory constant (Ki) is ≤ 100 nM.
For the molecule `Cc1cc(Cl)ncc1-c1cc(C(=O)N(C)c2ccccc2OCCCCC(=O)O)ccc1Cl` [4-5], the inhibition constant (Ki) was ≤ 100 nM.
Regarding `Cc1cc(Cl)ncc1-c1cc(C(=O)N(C)c2ccccc2C)ccc1Cl` [2-18], the inhibition constant Ki is ≤ 100 nM.
As to `Cc1cc(C(F)(F)F)nc(=O)n1-c1cc(C(=O)N(C)c2ccccc2F)ccc1Cl` [30-16], the inhibition constant (Ki) was ≤ 100 nM.
On to `COc1cc(Cl)c(-c2cnc(C(F)(F)F)cc2C#N)cc1C(=O)N(C)c1c(F)cccc1OC` [39-4], for which the Ki was ≤ 100 nM.
With `Cc1cc(C#N)ncc1-c1cc(C(=O)N(C)c2c(C)cccc2OCCCC(=O)O)ccc1Cl` [4-8], the Ki is ≤ 100 nM.
For `Cc1cc(C(F)(F)F)ncc1-c1cc(C(=O)N(C)c2ccccc2OCCCC(=O)O)ccc1Cl` [4-6], the inhibitory constant (Ki) was ≤ 100 nM.
For the molecule `Cc1cccc(N(C)C(=O)c2ccc(Cl)c(-c3ncc(Cl)cc3Cl)c2)c1C` [19-10], the Ki was ≤ 100 nM.
On to `COc1ccccc1N(C)C(=O)c1ccc(Cl)c(-c2cnc(C#N)cc2C)c1` [2-10, 4-chloro-3-(6-cyano-4-methyl-pyridin-3-yl)-N-(2-methoxy-phenyl)-N-methyl-benzamide], for which the Ki is ≤ 100 nM.
As for `COc1c(Cl)cccc1N(C)C(=O)c1ccc(Cl)c(-c2ncc(C)cc2C)c1` [2-70], the inhibition constant (Ki) is ≤ 100 nM.
`COc1ccccc1N(C)C(=O)c1cc(-c2cnc(C(F)(F)F)cc2C#N)c(Cl)cc1OCCCC(=O)OC(C)OC(=O)OC1CCCCC1` (stereo not shown) [37-3, 4-{5-chloro-4-(4-cyano-6-trifluoromethyl-pyridin-3-yl)-2-[(2-methoxy-phenyl)-methyl-carbamoyl]-phenoxy}-butyric acid 1-cyclohexyloxycarbonyloxy-ethyl ester]: the Ki is ≤ 100 nM.
Regarding `Cc1cccnc1N(C)C(=O)c1cc(-c2cnc(C(F)(F)F)cc2C#N)c(Cl)cc1OCCCC(=O)O` [34-20], the Ki is ≤ 100 nM.
For `Cc1cc(Cl)c(-c2cc(C(=O)N(C)c3ccccc3C)ccc2Cl)cn1` [2-16], the inhibition constant (Ki) is ≤ 100 nM.
On to `Cc1cc(C#N)ncc1-c1cc(C(=O)N(C)c2cccc(F)c2OCCCC(=O)O)ccc1Cl` [4-9], for which the inhibition constant (Ki) is ≤ 100 nM.
As to `COc1cccc(C)c1N(C)C(=O)c1ccc(Cl)c(-c2cnc(SC)cc2C)c1` [26-1, 4-Chloro-N-(2-methoxy-6-methyl-phenyl)-N-methyl-3-(4-methyl-6-methyl-sulfanylpyridin-3-yl)-benzamide], the Ki was ≤ 100 nM.
With `Cc1cc(C(F)(F)F)ncc1-c1cc(C(=O)N(C)c2c(C)cccc2OCCC(=O)O)ccc1Cl` [11-5], the inhibition constant Ki was ≤ 100 nM.
With `CN(C(=O)c1ccc(Cl)c(-c2cnc(C(F)(F)F)cc2C#N)c1)c1ccccc1OCCC(=O)NCCN` [53-1, N-{2-[2-(2-Amino-ethylcarbamoyl)-ethoxy]-phenyl}-4-chloro-3-(4-cyano-6-trifluoromethyl-pyridin-3-yl)-N-methylbenzamide] the figure was ≤ 100 nM; with `Cc1cc(C#N)ncc1-c1cc(C(=O)N(C)c2c(C)cccc2C)c(OCCCCO)cc1Cl` [21-5], ≤ 100 nM; with `COc1ccccc1N(C)C(=O)c1cc(-c2cnc(C(F)(F)F)cc2C#N)c(Cl)cc1OCCCc1cnoc1` [46-1, 4-Chloro-5-(4-cyano-6-trifluoromethyl-pyridin-3-yl)-2-(3-isoxazol-4-yl-propoxy)-N-(2-methoxyphenyl)-N-methyl-benzamide], ≤ 100 nM.
